Test results as given in ChEMBL document CHEMBL1955733, “Optimization of 5-pyridazin-3-one phenoxypropylamines as potent, selective histamine H₃ receptor antagonists with potent cognition enhancing activity” (J Med Chem, 2012).

Assays:
[1] = Clearance in Sprague-Dawley rat at 1 mg/kg, iv and 5 mg/kg, po; assay type: ADME, organism-based; conditions: in vivo
[2] = Half life in Sprague-Dawley rat at 1 mg/kg, iv and 5 mg/kg, po; assay type: ADME, organism-based; conditions: in vivo
Histamine H3 receptor [3] = molecular target: Histamine H3 receptor (Rattus norvegicus, UniProt Q9QYN8); test: Displacement of [3H]NAMH from rat cloned […] expressed in CHO cells; assay type: cell-based
Chain of Histamine H3 receptor (Rattus norvegicus, UniProt Q9QYN8) (Q9QYN8 whole entry): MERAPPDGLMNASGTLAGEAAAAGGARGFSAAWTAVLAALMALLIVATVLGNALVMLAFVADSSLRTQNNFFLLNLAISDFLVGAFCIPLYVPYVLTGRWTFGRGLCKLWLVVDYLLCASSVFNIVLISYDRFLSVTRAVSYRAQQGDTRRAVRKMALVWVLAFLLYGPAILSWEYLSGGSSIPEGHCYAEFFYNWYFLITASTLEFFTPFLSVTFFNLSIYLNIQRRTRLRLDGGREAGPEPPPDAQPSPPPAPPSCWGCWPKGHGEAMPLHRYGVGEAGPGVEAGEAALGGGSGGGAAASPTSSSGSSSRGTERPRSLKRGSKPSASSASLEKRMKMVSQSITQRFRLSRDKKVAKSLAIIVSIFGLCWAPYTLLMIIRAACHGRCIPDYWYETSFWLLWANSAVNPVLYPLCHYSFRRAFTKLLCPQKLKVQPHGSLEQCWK

Histamine H3 receptor [4] = molecular target: Histamine H3 receptor (Homo sapiens, UniProt Q9Y5N1); test: Displacement of [3H]NAMH from human cloned […] expressed in CHO cells; assay type: cell-based
Chain of Histamine H3 receptor (Homo sapiens, UniProt Q9Y5N1) (Q9Y5N1 whole entry): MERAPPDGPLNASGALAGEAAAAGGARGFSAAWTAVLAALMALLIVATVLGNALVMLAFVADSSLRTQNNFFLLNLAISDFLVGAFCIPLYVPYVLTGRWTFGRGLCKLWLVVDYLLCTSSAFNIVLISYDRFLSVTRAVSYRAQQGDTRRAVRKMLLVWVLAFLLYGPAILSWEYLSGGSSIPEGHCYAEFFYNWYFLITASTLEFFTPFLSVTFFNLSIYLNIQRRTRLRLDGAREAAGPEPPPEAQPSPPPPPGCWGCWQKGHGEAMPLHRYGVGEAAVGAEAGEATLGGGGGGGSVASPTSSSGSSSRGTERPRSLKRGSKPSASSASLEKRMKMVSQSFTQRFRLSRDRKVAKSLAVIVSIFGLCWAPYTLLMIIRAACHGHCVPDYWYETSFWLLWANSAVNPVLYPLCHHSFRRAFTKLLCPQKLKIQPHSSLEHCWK

[5] = Oral bioavailability in Sprague-Dawley rat at 5 mg/kg; assay type: ADME, organism-based; conditions: in vivo
[6] = Ratio of drug level in brain to plasma in Sprague-Dawley rat at 10 mg/kg, ip after 1 hr; assay type: ADME, organism-based; design: dose 10 mg/kg, route intraperitoneal; conditions: brain and plasma, read-out: BPR

Row | SMILES | clearance [1] [mL/min/kg] | half-life [2] [h] | Ki (Histamine H3 receptor [3]) [nM] | Ki (Histamine H3 receptor [4]) [nM] | bioavailability [5] [%] | Kp at 1 h [6]
1 | CC(C)n1ncc(-c2ccc(OCCCN3CCC[C@H]3C)cc2)cc1=O | 12 | 0.3 | 7 | 2.7 | 1 | 5.1
2 | C[C@@H]1CCCN1CCCOc1ccc(-c2cn[nH]c(=O)c2)cc1 |  |  |  |  |  | 1.8
3 | Cc1cccnc1-n1nc(C)c(-c2ccc(OCCCN3CCC[C@H]3C)cc2)cc1=O | 7 | 1.4 | 17 | 3 | 20 | 0.5
4 | O=c1cc(-c2ccc(OCCCN3CCCCCC3)cc2)cnn1-c1ccccn1 | 25 | 1.8 | 12 | 5.3 | 28 | 1.8
5 | Cc1n[nH]c(=O)cc1-c1ccc(OCCCN2CCCCC2)cc1 | 30 | 0.8 | 23 | 7.9 | 28 | 1.3
6 | Cn1ncc(-c2ccc(OCCCN3CCCCC3)cc2)cc1=O | 75 | 0.6 | 30 | 13 | 40 | 5.3
7 | Cn1ncc(-c2ccc(OCCCN3CCCCCC3)cc2)cc1=O |  |  | 22 | 8.1 |  | 
8 | Cc1n[nH]c(=O)cc1-c1ccc(OCCCN2CCCCCC2)cc1 | 54 | 1 | 7.5 | 4.8 | 25 | 1.2
9 | O=c1cc(-c2ccc(OCCCN3CCCCC3)cc2)cnn1-c1ccccn1 | 11 | 1.6 | 16 | 7.8 | 26 | 1.6
10 | Cc1cccc(-n2ncc(-c3ccc(OCCCN4CCC[C@H]4C)cc3)cc2=O)n1 | 23 | 2.2 | 4.4 | 1.8 | 12 | 1
